Columns and labels:
SARS-CoV-2 = format: cell-based

Compound	IC50 (SARS-CoV-2; SARS-CoV-2 (0.0125 MOI) in Vero cells, 24 hours, N protein immunofluorescence, highest concentration 500 μg/ml, two repeated experiments) [µg/mL]	inhibition of infection with SARS-CoV-2 (in words) (SARS-CoV-2; Vero cells, up to 500 μg/ml)	CC50 (Vero cells) [µg/mL]
OC[C@H]1NC[C@H](O)[C@@H](O)[C@@H]1O [Comparative Example 2, 1-Deoxynojirimycin]	>500	did not inhibit infection	>500
Propolis [Comparative Example 1]	–	–	>500
